Data reported in a melting point compilation (Tetko et al.; mined from patent text by program, amines drawn as free bases though some values may be those of a salt).

| Structure (SMILES) | melting point [°C] |
| --- | --- |
| O=C1c2ccccc2CN1C1CCN(CCC2c3ccccc3-c3ccccc32)CC1 | 65 to 68 |
| COc1ccc(C(O)C(F)(F)C(=O)SC(C)(C)C)cc1 (configuration not stated) | 73 to 75 |
| CNCC(=O)NCC1Cc2cc(C)c3[nH]c(=O)ccc3c2O1 (configuration not stated) | 188 to 191 |
| CN1CC(CCN2CCOCC2)N(C)c2nc3ccccc3n2C1=O (configuration not stated) | 149 to 152 |
| CC(O)(C(O)CBr)C(O)CBr (configuration not stated) | 78 to 80 |
| CC(C)(C)C(C)(C)Nc1nc(Cl)nc(NC(C)(C)C(C)(C)C)n1 | 129 to 131 |
| CCCCN1CCC(O)(c2cccc(C(F)(F)F)c2F)CC1 | 138 |
| CS(=O)(=O)c1cc2c(c(C=O)c1O)CCC2 | 152 to 153 |
| CCSN(C)C(=O)Nc1ccc(Cl)c(Cl)c1 | 71 |
| O=C(NCCc1c[nH]c2ccccc12)c1cccnc1 | 150 to 152 |
| NC(=NCC(F)(F)F)Nc1ccnc(SCCCC2=NCCN2)n1 | 184 to 186 |
| COc1ccccc1N1CCN(CCC(C#N)(c2ccccc2)c2ccccc2[N+](=O)[O-])CC1 (configuration not stated) | 61 to 64 |
| CNC(=C[N+](=O)[O-])NCCSCc1ncccc1Cl | 166 |
| CCCCCNC(=O)N(C)c1cccc(-c2ccc(C=C(C)C(=O)O)cc2OCCCC)c1 | 87 to 89 |
| Cn1ccc2cc(NC(=O)/C=C/c3ccc(C(C)(C)C)cc3)ccc21 | 171 |
| CN1C(C(=O)Nc2ccccc2)=C(O)c2ccc3ccccc3c2S1(=O)=O | 273 to 274 |
| CC(C)c1nc(CO)n(Cc2ccccc2)c1Sc1cc(Cl)cc(Cl)c1 | 121 to 124 |
| CC(C)C[C@H](NC(=O)[C@@H]1CCCN1c1nc2ccccc2c(=O)o1)C(=O)NCC(N)=O | 199 to 201 |
| COc1ccc(C(=O)N2CCC(N3CC4(CCN(Cc5ccccc5)CC4)c4ccccc43)c3ccccc32)cc1OC (configuration not stated) | 155 to 157 |
| CC1(C)CC(c2ccc(Cl)cc2)=C(c2ccc(S(C)(=O)=O)cc2)C1 | 144 to 145 |
| CCSc1ccc(-c2c(Cl)ncn2-c2ccc(S(C)(=O)=O)cc2)cc1 | 181 to 185 |
| Clc1ccc(-c2cc(Cl)c3ccccc3n2)cc1 | 119 to 122 |
| COc1c2c(c(OC)c(OC)c1OC)CCC(CCOc1ccc(Cl)cc1)CC2 | 98 to 102 |

| Structure (SMILES) | melting point [°C] |
| --- | --- |
| ClCc1ccc(OCCCCc2ccccc2)cc1 | 60 to 62 |
| O=C(c1ccc(F)cc1)C1CCN(CCN(C(=O)c2ccc([N+](=O)[O-])cc2)c2ccccc2C(F)(F)F)CC1 | 157 to 158 |
| COc1cc(OCc2ccccn2)ccc1/C=C/C(=O)CC(=O)/C=C/c1cc2ccccc2[nH]1 | 178 to 179 |
| CC(=O)Nc1ccc2c(c1)CC(CN1CCC(c3c[nH]c4cc(Cl)ccc34)CC1)C2 (configuration not stated) | 151 to 152 |
| CC1=NN(CCCn2ccnc2)Cc2cc3ccccn3c21 | 162 to 163 |
| COc1cccc(-c2c(C3CCN(C)CC3)[nH]c(=O)c3ccccc23)c1 | 181 to 183 |
| O=C1ONCC12CCOc1ccc(F)cc12 (configuration not stated) | 153 to 155 |
| O=S(=O)(CC(F)(F)F)Nc1cccc2c1CCCC2c1c[nH]cn1 (single isomer, unassigned; (+)) | > 260 |
| COc1ccc(NC(=O)c2ccc(Cl)c(Cl)c2)cc1NS(=O)(=O)c1ccc(C)cc1 | 228 to 230 |
| OCCCCc1cc(-c2ccc(C(F)(F)F)cc2)no1 | 68 to 69 |
| CC(=O)c1cccc(-c2cncc(OC3SCC(O)C(O)C3O)c2)c1 (configuration not stated) | 159 to 163 |
| COC(=O)Nc1nc2ccc(Sc3ccccc3)cn2c1C(=O)C(F)(F)F | 171 to 173 |
| Cc1cc2c(c3ccc(=O)[nH]c13)OC(CNC(=O)CN(C)C(=O)OC(C)(C)C)C2 (configuration not stated) | 190 to 191 |
| Cc1cn(C2CC(O)C(CNC(=O)c3ccc(Br)cc3)O2)c(=O)[nH]c1=O (configuration not stated) | 250 to 252 |
| c1ccc(C(=C(c2ccccc2)P(C2CCCCC2)C2CCCCC2)c2ccccc2)cc1 | 121 to 123 |
| O=C(NC(=O)C(c1ccccc1)c1ccccc1)OCCCc1ccncc1 | 147 to 150 |
| COc1c(C)cc(N2CCN(c3ccc(-n4c(C)n[nH]c4=O)cc3)CC2)cc1C | 280 |
| COC(=O)c1ccc2c(c1)OCC2(C)Cc1ccccc1 (configuration not stated) | 52 |
| Oc1cccc2c(Oc3ccccc3)cccc12 | 82 to 83 |
| COC(=O)Cc1c(O)nc(C)nc1O | > 200 |
| Cc1cc(-c2ccc(C(F)(F)F)cc2)nc(-n2cnc(-c3cccc(S(N)(=O)=O)c3)c2)n1 | 186 |
| COC(=O)c1ccc(/C=C/C(=O)NOC2CCCCO2)s1 (configuration not stated) | 177 |
| CCCOc1ncc(NC(C)C(=O)OC)cc1-c1nc2c(CCC)nn(C)c2c(=O)[nH]1 (configuration not stated) | 185 to 187 |

Further lines, results first:

| melting point [°C] | Structure (SMILES) |
| --- | --- |
| 87 to 100 | O=C1N(c2cccc(C(F)(F)F)c2)CC(CCl)C1(Cl)Cl (configuration not stated) |
| 173 to 181 | COc1ccc(C=C2OC(=O)c3ccccc32)cc1[N+](=O)[O-] |
| 272 to 275 | CC1(C)OC(=O)Nc2ccc(-c3ccc(C#N)c(F)c3)cc21 |
| 87 to 88 | OCc1cccc(/C=C/c2ccccc2)c1 |
| 168 to 173 | COCc1nc2c3c(ccn2c1C)C(=O)[C@H](O)[C@@H](c1ccccc1)N3 |
| 173 to 175 | C#Cc1cc(Cc2cnc(N)nc2N)cc(OC)c1OC |
| 85 to 88 | CCCCCCCCCCCCCCCCCC(=O)N1CC1C#N (configuration not stated) |
| 164 to 167 | O=C1C2=NCCCN2c2cc(Cl)ccc21 |
| 126 to 127 | O=C(O)CNc1ccccc1F |
| 51 to 53 | COc1ccc2cc(C(C)C(=O)OCC(=O)NCCCO[N+](=O)[O-])ccc2c1 (configuration not stated) |
| 198 to 201 | O=C1c2cccc(NC3CCCC3)c2C(=O)c2cccc(NC3CCCC3)c21 |
| 95 | O=C1NC(=O)C(Cc2ccc(OC[C@@H]3CCCN3c3nc4ccccc4s3)cc2)S1 (some centres not stated) |
| 167 to 168 | COC(=O)c1ccc(CNC(=O)c2cccc(-c3nnn(Cc4ccc(OC)cc4)n3)c2)cc1 |
| 93 to 95 | CN(C=O)c1cc(F)ccc1C(=O)COC(=O)c1ccccc1 |
| 258 to 259 | Cn1c(C#N)c(-c2ccc(F)cc2)c2ncccc2c1=O |
| 232 | CCOc1cc(OCC2CCN(C)CC2)c(F)c(C(Nc2ccc(C(=N)N)cc2)C(=O)O)c1 (racemic) |
| 129 to 130 | COc1ccc2c(c1)C(=O)C(=Cc1ccc(F)cc1)CC2 |
| 152 to 154 | CN1C(=O)C2(COc3cc4c(cc32)OCCO4)c2ccccc21 (configuration not stated) |
| 240 to 242 | O=C1Nc2ccc(-c3ccc(C=NO)c(F)c3)cc2C12CCCCC2 |

| melting point [°C] | Structure (SMILES) |
| --- | --- |
| 134 to 136 | COCCOc1ccc(CCNC(=O)C(F)(F)F)cc1S(=O)(=O)N=CN(C)C |
| 120 | CC(=O)Nc1ccc2c(c1)[nH]c(=O)c(=O)n2CP(=O)(O)O |
| 178 to 179 | COC(=O)c1cccc(Cl)c1NC(=O)CC1c2ccccc2Oc2ccccc21 |
| 123 to 125 | CNC(=O)N(c1ccc(OC(F)(F)F)cc1)c1nc(OCC(F)(F)F)cc(OCC(F)(F)F)n1 |
| 108 to 110 | OCCNc1nc(NCCO)nc(Nc2ccccc2Cl)n1 |
| 206 to 208 | OC[C@H]1CCCC[C@H]1Nc1nccc(-n2nnc3ccccc32)n1 |
| 111 to 113 | N#CCc1ccc(NC(=O)CNc2ccccc2F)cc1 |
| 273 to 274 | NC(=O)c1cc(NC(=O)c2ccccc2)ccc1SSc1ccc(NC(=O)c2ccccc2)cc1C(N)=O |
| 83 to 84 | C=C(C)CN1Cc2cscc2Nc2ccccc21 |
| > 300 | N#Cc1nc(O)c(-c2cc(O)c(O)c([N+](=O)[O-])c2)nc1C#N |
| 77 to 79 | Nc1c(Cl)cc(C(O)CNCCCCCCOCCCCc2ncccn2)cc1Cl (configuration not stated) |
| 70 to 73 | Cc1noc(C)c1CC(C)(NC(=O)OC1C2CC3CC(C2)CC1C3)C(=O)NCCc1ccccc1 (configuration not stated) |
| 90.5 to 95 | O=C(Nc1ccc(F)cc1F)c1ccccn1 |
| 215 | CC(C)(C)OC(=O)N1CCC[C@H]1c1nc2c(C(F)(F)F)cccc2c(O)c1C(=O)Nc1nccs1 |
| 81 to 82 | CC(=O)OCn1c(C(=O)OC(C)C)nc(Cl)c1Cl |
| 97 to 98 | COC(=O)c1ccc(C#Cc2cncc(C3CCCN3C)c2)cc1 (configuration not stated) |
| 125 to 127 | C#CC1(Oc2ccc(F)cc2N)CCN(C(=O)Oc2ccccc2)CC1 |
| 172 to 175 | COCCc1nc2c(N)nc3cc(Br)ccc3c2s1 |
| 58 | O=C(c1ccc(F)cc1O)C1CC1 |

| melting point [°C] | Structure (SMILES) |
| --- | --- |
| 175 | COc1ccccc1CNc1ccc2cc(Nc3ncccn3)ccc2n1 |
| 288 to 290 | O=S1(=O)N=C(NCC2CC2)Nc2ccc(Cl)cc21 |
| 211 | CCCC1=C(C(=O)OCC)C(c2ccccc2C#N)c2c[nH]nc2N1 (configuration not stated) |
| 55 to 57 | CC(C)Oc1cc(N)ccc1-n1cccc1 |
| 118 | CNC(=O)[C@@H]1CCN1S(=O)(=O)c1ccc(Cl)c(COc2cccc3c(-n4ccnc4)cc(C)nc23)c1Cl |
| 110 to 113 | CCCCCc1cc2cc(O)ccc2c(Oc2ccc(/C=C/C(=O)O)cc2)c1-c1ccccc1 |
| 95 to 100 | CC(CSS)C(=O)Nc1ncccc1C(=O)O (configuration not stated) |
| > 270 | CCn1c(=O)c2[nH]c(/C=C/c3cc(OC)cc(OC)c3)nc2n(CC)c1=O |
| 141 | CCOCCn1c(NC2CCN(CC#N)CC2)nc2cccnc21 |
| 277 to 278 | Cc1ccc(N2CCCN(c3cc[nH]c(=S)c3C#N)CC2)cc1[N+](=O)[O-] |
| 99 to 104 | O=C1CC(c2ccc(F)cc2)CC(=O)O1 |
| 174 to 175 | COc1ccccc1NC(=O)CN1CCN(c2ncccc2C#N)CC1 |
| 78 to 80 | CCCC(CCC)C(=O)O/N=C(\C)[C@H]1CC[C@H]2[C@@H]3CCC4=CC(=O)CC[C@]4(C)[C@H]3CC[C@]12C |
| 84 to 85 | CC1(CN(c2ccc(Cl)cc2)S(C)(=O)=O)OCCO1 |
| 182 to 184 | Cc1oc(-c2ccccc2)nc1CSc1ccc(S(=O)(=O)Nc2ccccc2C(=O)O)cc1 |
| 59 to 61 | N#CCc1cc2ccccc2s1 |
| 71 to 76 | CCCCCCCNC(=O)Nc1ccccc1C(=O)NCC1c2ccccc2COc2ccc(Br)cc21 (configuration not stated) |
| 49 to 51 | NCc1cc(CN)cc(CN)c1 |
